Assay results published in patent US20060149043A1, “Fluorescent lanthadine complex” (Japan Science and Technology Agency, priority 2003, published 2006).

Legend:
[1] = Time resolved luminescence measurement of terbium (III) complexes (luminescence, lifetime, water coordination number); type: physicochemical; settings: terbium (III) complex
Method: Compounds 8, 11 and 15 each were dissolved in dimethyl sulfoxide to prepare 10 mM stock solutions. In addition, terbium (III) chloride hexahydrate was dissolved in dimethyl sulfoxide to prepare a 10 mM stock solution. Equal volumes of the terbium (III) chloride hexahydrate solution prepared were added to the individually prepared solutions of Compounds 8, 11 and 15, and, the resulting solutions were left standing for 30 minutes at room temperature to prepare terbium (III) complexes of Compounds 8, 11 and 15. The solutions were diluted using a 100 mM HEPES buffer (pH 7.4), and the luminescences of 8 μM solutions were measured.
(§1) Luminescences were measured using a time resolved measurement. Luminescences were measured for all complexes at an excitation wavelength of 330 nm, a delay time of 0.05 ms and a gate time of 1.00 ms. In addition, the luminescence lifetimes were measured using an excitation wavelength of […], and the luminescence wavelengths were measured using 545 nm for individual terbium complexes and 615 nm for individual europium complexes [100 mM HEPES buffer (pH 7.4) in each 8 μM].
The luminescence spectra of the terbium (III) complexes of Compounds 8, 11 and 15 are shown in FIG. 11, and their luminescence life and water coordination numbers are shown in Table 1.

[2] = Time resolved luminescence measurement of europium (III) complexes (luminescence, lifetime, water coordination number); type: physicochemical; settings: europium (III) complex
Method: Compounds 8, 11 and 15 each were dissolved in dimethylsulfoxide to prepare 10 mM stock solutions. In addition, europium (III) chloride hexahydrate was dissolved in dimethylsulfoxide to prepare a 10 mM stock solution. Equal volumes of the europium (III) chloride hexahydrate solution were added to the individually prepared solutions of Compounds 8, 11 and 15, and the resulting solutions were left standing for 30 minutes at room temperature to prepare the europium (III) complexes of the Compounds 8, 11 and 15. These solutions were diluted using 100 mM HEPES buffer solution (pH 7.4), and the luminescences of the 8 μM solutions were measured.
as §1
In addition, the luminescence spectra of the europium (III) complexes of Compounds 8, 11 and 15 are shown in FIG. 12, and their luminescence life and water coordination numbers are shown in Table 2.

[3] = 8 μM, 100 mM HEPES buffer (pH 7.4), excitation 330 nm, delay time 0.05 ms, gate time 1.00 ms

Water coordination number [1]: 1.23
Life time (H2O) ([1]; 8 μM in 100 mM HEPES buffer (pH 7.4), luminescence wavelength 545 nm, H2O): 1.46 ms
Luminescence emission (intensity) [1, 3]: almost identical
Life time (D2O) ([1]; luminescence wavelength 545 nm, D2O): 2.55 ms
Water coordination number [2]: 1.34
Life time (H2O) ([2]; 8 μM in 100 mM HEPES buffer (pH 7.4), luminescence wavelength 615 nm, H2O): 0.59 ms
Luminescence emission (intensity) [2, 3]: almost identical
Life time (D2O) ([2]; luminescence wavelength 615 nm, D2O): 2.38 ms
SMILES: Cc1cc(=O)[nH]c2cc(NC(=O)CN(CCN(CCN(CC(=O)O)CC(=O)O)CC(=O)O)CC(=O)O)ccc12 [DTPA-cs124]
